# Results published in patent US20110092592A1, “DIAGNOSIS AND TREATMENT OF HEPATIC DISORDER” (priority 2008, published 2011).
# Tests used:
# [1] = system: subjects affirmatively diagnosed as having NASH; test: Example 1: EPA-E group vs placebo control group in NASH subjects, one year; assay type: in vivo, human
# Experimental: Subjects affirmatively diagnosed as having NASH are divided into two groups (each comprising 15 cases), namely the EPA-E group and the control group, then the groups are caused to take EPADEL S900 (containing 900 mg of EPA-E) and a placebo, respectively, twice a day. Doses are modified as appropriate to the subjects' conditions. Following the method described in American Journal of Gastroenterology 2001, Vol. 96, pp. 2711-2717 with respect to the criteria for diagnosing subjects, monitoring, histological testing, statistic analysis, and so forth, blood chemistry tests on ALT, AST, and the like are performed and the plasma fatty acid composition is determined over a dosage period of one year, and liver biopsy is conducted at the end of dosage, so as to make histological evaluations.
# Of the EPA-E group, 15 cases are sorted into two groups, one (“effective” group) comprising the cases in which the score in accordance with the method of Brunt et al. is changed after the administration of the drug from that before the administration by 1 or 2, and the other (“ineffective” group) comprising the cases in which the score after the administration is not changed from that before the administration, and analysis is conducted on the change in the plasma fatty acid composition as determined over the dosage period of one year. The OA/SA ratio before the administration is not different between the effective group and the ineffective group. […] The reduction rate of the OA/SA ratio in two months is calculated by the equation: reduction rate (%)=[(OA/SA ratio before start of administration)−(OA/SA ratio two months after start of administration)]/OA/SA ratio before start of administration×100.
# [2] = system: patients with NASH having liver fibrosis; test: Example 3: EPA-E with dietary restriction and exercise therapy in NASH patients having liver fibrosis, one year; assay type: in vivo, human; details: one year after start of treatment
# Experimental: Patients with NASH having liver fibrosis, that is to say, subjects suffering from fibrosis classified to stage 1 or 2 according to the fibrosis staging of Brunt et al. are collected (15 cases). Dietary restriction and exercise therapy are conducted so that the blood OA/SA ratio as monthly measured may be reduced in value from that measured previously, while 900 mg of EPA-E is administered twice a day, so as to do follow-up for one year. To the subjects in whom no change is recognized in OA/SA ratio, 900 mg of EPA-E is administered thrice a day.
# The subjects in whom the reduction ratio of the OA/SA ratio in one month after the start of the administration is not lower than 5% are included in group A, while the subjects in whom the reduction ratio of the OA/SA ratio in one month after the start of the administration is lower than […] are included in group B. The reduction rate of the OA/SA ratio in one month is calculated by the equation: reduction rate (%)=[(OA/SA ratio before start of administration)−(OA/SA ratio one month after start of administration)]/OA/SA ratio before start of administration×100.
# patients with NASH = test: Example 4: EPA-E in NASH patients grouped by adiponectin gene SNP276 genotype, one year; assay type: in vivo, human; details: for NAS scores (Kleiner et al.): 900 mg twice a day, one year
# Experimental: There are three genotypes for the adiponectin gene SNP276, the T/T, G/T and G/G genotypes, and humans with the G/G genotype are said to have a lower blood adiponectin level than those with the T/T genotype.
# To a group of patients with NASH having the adiponectin gene SNP276 which is of the G/G genotype and a group of patients with NASH having the adiponectin gene SNP276 which is of the genotype other than the G/G genotype (each group comprising 15 cases), 900 mg of EPA-E is administered twice a day for one year. After the lapse of one year, therapeutic effects are evaluated by the NAS scoring of Kleiner et al. In both of the group of patients with NASH having the G/G genotype and the group of patients with NASH having the genotype other than the G/G genotype, NAS scores are improved owing to the administration of the drug for one year.
# NASH = details: 2700 mg/day for 12 months; Non-Patent Literature 3; cited from earlier work
# [3] = EPADEL S900 (900 mg EPA-E) twice a day, one year, vs before treatment and vs control group
# [4] = effective group (Brunt score changed by 1 or 2)
# [5] = ineffective group (Brunt score not changed)
smiles,measurement,setting,value
"CC/C=C\C/C=C\C/C=C\C/C=C\C/C=C\CCCC(=O)OCC [EPA-E, ethyl icosapentate ester]",mean value of ALT,[1]; [3],reduced from those before treatment more markedly in comparison with the control group
same,mean value of AST,[1]; [3],reduced from those before treatment more markedly in comparison with the control group
same,TIMP-1,[1]; [4],gradually reduced in value
same,hyaluronic acid,[1]; [4],gradually reduced in value
same,type IV collagen,[1]; [4],gradually reduced in value
same,reduction rate of the OA/SA ratio in two months,[1]; effective group compared with ineffective group,high in the effective group as compared with the ineffective group
same,plasma OA/SA ratio,"[1]; for two months after start of administration, effective and ineffective groups",tends to be reduced in both groups
same,plasma OA/SA ratio,"[1]; from the lapse of two months on, effective and ineffective groups",tends more or less to be reduced
same,TIMP-1,[1]; [5],hardly changed in value
same,hyaluronic acid,[1]; [5],hardly changed in value
same,type IV collagen,[1]; [5],hardly changed in value
same,"average fibrosis, fibrosis staging of Brunt et al.",[1]; liver biopsy at the end of one-year dosage,from stage 2 to stage 1
same,plasma OA/SA ratio,"[1]; two months after start of administration, effective group vs ineffective group",lower in value than in the ineffective group
same,"fibrosis, staging of Brunt et al., by liver biopsy",[2]; group A (OA/SA reduction in one month not lower than 5%),"ameliorated from stage 2 to stage 1 or non-fibrotic stage, or again, from stage 1 to non-fibrotic stage"
same,amelioration of fibrosis,[2]; group B (OA/SA reduction in one month lower than 1%),slight
same,degree of improvement in NAS score,patients with NASH; G/G genotype group vs other genotype group,higher in the group of patients with NASH having the G/G genotype
same,NAS scores (Kleiner et al.),patients with NASH; G/G genotype group,improved
same,NAS scores (Kleiner et al.),patients with NASH; genotype other than G/G,improved
same,"NASH (AST, ALT, inflammatory cytokines, oxidative stress markers, liver biopsy)",NASH,amelioration of NASH
